In article PMC3006207, “Phosphorylation-Dependent Protein Interaction with Trypanosoma brucei 14-3-3 Proteins that Display Atypical Target Recognition” (PLoS ONE, 2010):

How the values were obtained:
[1] = system: heterodimeric T. brucei 14-3-3I+II; test: NC-filter binding assay, heterodimeric T. brucei 14-3-3; design: species or system Trypanosoma brucei; details: biotinylated peptide + streptavidine on nitrocellulose filter; GST-14-3-3 detected with α-GST antibodies
Method: (§1) Five µl of 1 mM biotinylated peptides, purchased from Scrum (Japan) were mixed with 15 µl of streptavidine (1 mg/ml) in the presence of 0.1% Tween20, spotted on NC-filters and dried. Filters were washed with TTBS, blocked with Protein-Free Blocking Buffer (Pierce), and then incubated with GST-14-3-3 proteins in TTBS containing 20% Protein-Free Blocking Buffer and 1 mM DTT. The filters were extensively washed four times with TTBS, and detected with anti-GST antibodies.

human 14-3-3ζ = test: NC-filter binding assay, human 14-3-3ζ
Method: as §1

GST-I K77E +II K56E = test: NC-filter binding assay, mutant heterodimer; design: species or system Trypanosoma brucei
Method: I K77E: 5′-[…]-3′, 5′-[…]-3′; and II K56E: 5′-[…]-3′, 5′-[…]-3′. The sequences were confirmed.
as §1

T. brucei 14-3-3I = test: Surface plasmon resonance (BIAcore), phosphopeptide vs 14-3-3I; type: binding, Trypanosoma brucei; details: 200 nM GST-14-3-3I; peptide 296 RU on SA5 chip; HBS-EP buffer
Method: (§2) The surface plasmon resonance measurement was carried out using BIAcore 2000. A resonance unit value of 220 of biotinylated phosphopeptide pSRaf 259 (biotin-MAGGGRQRSTpSTPN) (mode 1 peptide) was coupled to a streptavidin-coated sensor chip (SA5, BIAcore). In the next step, 200 nM each of purified GST-14-3-3I, GST-14-3-3II, and GST–14-3-3τ, or 500 nM each of MBP-14-3-3I, MBP-14-3-3II, and MBP-14-3-3τ in HBS-EP buffer (BIAcore) was injected at a flow rate of 20 µl/min. A resonance unit value of 296 of biotinylated mode 2 peptide (biotin-MAGGGRLYHpSLP) was also coupled to SA5 and 200 nM each of GST-14-3-3I, GST-14-3-3II and GST-14-3-3τ in HBS-EP buffer, and was injected in the same manner.

T. brucei 14-3-3II = test: Surface plasmon resonance (BIAcore), phosphopeptide vs 14-3-3II; type: binding, Trypanosoma brucei; details: 200 nM GST-14-3-3II; peptide 296 RU on SA5 chip; HBS-EP buffer
Method: as §2

human 14-3-3τ = target: T1, human 14-3-3τ (Homo sapiens, UniProt P27348); test: Surface plasmon resonance (BIAcore), phosphopeptide vs 14-3-3τ; type: binding; details: 200 nM GST-14-3-3τ; peptide 296 RU on SA5 chip; HBS-EP buffer
T1 construct: made in house
T1 sequence (P27348 1-245): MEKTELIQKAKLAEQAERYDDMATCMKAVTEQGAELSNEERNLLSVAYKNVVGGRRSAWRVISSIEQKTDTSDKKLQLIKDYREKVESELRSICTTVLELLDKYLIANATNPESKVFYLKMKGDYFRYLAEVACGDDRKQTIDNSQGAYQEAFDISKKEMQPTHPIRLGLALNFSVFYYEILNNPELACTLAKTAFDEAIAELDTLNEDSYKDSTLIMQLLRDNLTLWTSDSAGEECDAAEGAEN
Method: as §2

T. brucei GST-II +I = test: Far-Western blot of immunoprecipitated V5-tagged proteins, probe GST-II +I; type: binding, Trypanosoma brucei; details: protein expressed in HEK293T cells, immunoprecipitated with anti-V5
Text: (§3) We first examined whether a putative protein phosphatase 2c (PP2c) in the list interacts with T. brucei 14-3-3 proteins, since the phenotype of knockdown of 14-3-3I and/or II resembled that of okadaic acid, a potent serine/threonine phosphatase inhibitor, -treated T. brucei cells and PP2c has a putative mode 3 motif. The N-terminally V5-tagged PP2c protein was expressed in human HEK293T cells and purified by immunoprecipitation using anti-V5 monoclonal antibody (Ab). Far-WB probing with GST-14-3-3 proteins was used to detect the direct interaction. We have recently identified the heterodimeric form as the major form of T. brucei 14-3-3 proteins (unpublished data) and thus, recombinant heterodimeric GST-II +I was used as a probe. […] We further confirmed that the binding was mediated by intact mode 3 motif (Figure 2B).
(§4) Figure 2 Interaction of T. brucei PP2c with T. brucei and human 14-3-3 proteins. (A) and (B) Mammalian expression vectors pCR3 N-V5-PP2c, –PP2c S744A or -C-terminal mutants of PP2c were transiently transfected to HEK293T cells. […] The filters were then incubated with indicated GST-14-3-3 proteins and detected with α-GST antibodies. […]
(§5) Figure 3 p31-SAP binds to T. brucei 14-3-3 proteins in vivo (PCF cells). […] Immunoprecipitated proteins were analyzed by Far-WB with GST-II + I as a probe (upper panel). […]

human GST-14-3-3ζ = test: Far-Western blot of immunoprecipitated V5-tagged proteins, probe GST-14-3-3ζ; type: binding; details: protein expressed in HEK293T cells, immunoprecipitated with anti-V5
Text: as §3
as §4, with “cells. The cell lysates were subjected to immunoprecipitation with α-V5 Ab followed by far-Western blot analyses (Far-WB) using indicated probes (upper panel). Immunoprecipitated proteins were reprobed with α-V5 Ab (lower panel).” for “cells.”

[2] = system: endogenous 14-3-3I and II; test: Co-immunoprecipitation with α-V5 Ab in T. brucei PCF cells; type: cell-based, Trypanosoma brucei; details: Tet-inducible T. brucei PCF clones; Western blot with mixture of α-I and α-II Ab
Text: Figure 2 Interaction of T. brucei PP2c with T. brucei and human 14-3-3 proteins. (A) and (B) Mammalian expression vectors pCR3 N-V5-PP2c, –PP2c S744A or -C-terminal mutants of PP2c were transiently transfected to HEK293T cells. The cell lysates were subjected to immunoprecipitation with α-V5 Ab followed by far-Western blot analyses (Far-WB) using indicated probes (upper panel). Immunoprecipitated proteins were reprobed with α-V5 Ab (lower panel). (C) Modes 1-3 phosphopeptides summarized in Table 1 have far less affinity to T. brucei 14-3-3 than human 14-3-3ζ proteins. Indicated biotinylated phosphopeptides were mixed with streptavidine and spotted to nitrocellulose filters and dried. The filters were then incubated with indicated GST-14-3-3 proteins and detected with α-GST antibodies. (D) Tet-inducible T. brucei expression vector, pLew82 T7bsr-N-V5-PP2c was transfected and clones were isolated with blasticidin selection. Tet-uninduced (Tet−) or –induced (Tet +) cell lysates of the clone were subjected to immunoprecipitation followed by Western blotting using a mixture of α-I and II Ab (lower panel), and horseradish peroxidase (HRP)-labeled α-V5 Ab (upper panel).
as §5

## MGGGHVSGLKRRRpSV [synthetic mode 3 phosphopeptide derived from p31-SAP]
[1]
  interaction with spotted phosphopeptide: clearly detected
Human 14-3-3ζ; NC-filter, relative to T. brucei 14-3-3
  affinity to p31-SAP derived phosphopeptide, human 14-3-3ζ vs T. brucei 14-3-3: slightly higher affinity to the p31-SAP derived phosphopeptide than T. brucei 14-3-3
Human 14-3-3ζ; biotinylated peptide + streptavidine on nitrocellulose filter, GST-14-3-3ζ detected with α-GST antibodies
  interaction with spotted phosphopeptide: interacts with both phosphopeptides but with the preferential binding to the mode 3 peptide derived from p31-SAP
GST-I K77E +II K56E
  binding of mutant 14-3-3 to p31-SAP derived peptide: prevent the binding to the p31-SAP derived peptide

## biotin-MAGGGRLYHpSLP [mode 2 phosphopeptide, biotinylated mode 2 peptide (biotin-…pSLP)]
T. brucei 14-3-3I
  binding pattern of the sensorgram, mode 2: neither GST-14-3-3I nor GST–14-3-3II showed any binding
T. brucei 14-3-3II
  binding pattern of the sensorgram, mode 2: neither GST-14-3-3I nor GST–14-3-3II showed any binding
Human 14-3-3τ
  binding pattern of the sensorgram, mode 2: bound to the mode 2 phosphopeptide

B1: V5-tagged PP2c: N-terminally V5-tagged putative T. brucei protein phosphatase 2c (Tb927.7.4020) (protein)
chain: MYTSVRKPPLSTAKLSEKTDAAGKGNLNGVAESPTSRDGGIGSSMPYVARKPNSGDGQGRPGEVQRAGQVTYQTTNALFTGSTVPGKTKDVSTAKSSGGGDHLNNGDRPPLVGDNNEVSSPRTIKMNSSPPRRYFHRGAINCNSSENVAAVLGGSTLISGERVGSGSGYPRRVFSGPPSTRMLNQGGEEPAQKPQPPGSSRSKSGIRQLQFALNGNSSQRLLPVPPRQLCPSNPARRGGGAATVTPRCSDARRQKQDSTDPFDMTQVLNGVGTQLGLPSYCPGAESSQGSNRLRGSKPPSPSLLPLASLRSQQMPSTAGVPAPRSLSESQQLSINPSGVFGCATDCKNGLGYDFRVVASTGKSFNLPIKLTAGVGCVQGLRPTMEDEHFIRLQATTAVGQPVSLLGILDGHCGRRVAELAAKHVPDNFIAHPALGENNALAFVESIIQADRAIFHSIGKGSGGVGLSAGFGGSGGSTLIAAAVHGRMLYVACLGDARAVLYDGNTTIPMSEDHKPLNKKEHTRILQCGGFVQLGRVCGVLAVSRALGDYEFKFNGNRFISNRELMVSNVADVRQINLTDSSKFLLLACDGLWDAVQNEEATQFVRDFLSYTPDVGSSPEATKRAINNCCQKLAEFAVSRGSTDNVSVMLLFFHNVADVVASFDRASDATTSRATVTSPVSPRLFSASRGVNAGFTGMESRLAGISGGSSSGAFGGSSGAEGSSVRGAGRTKVDRGASWLTRSRSLW
modifications: left off: V5, N-terminal, kept
T. brucei GST-II +I
  direct binding by Far-WB: to T. brucei GST-II +I (heterodimerized recombinant proteins) with lower affinity
Human GST-14-3-3ζ
  direct binding by Far-WB: directly bound to GST-14-3-3ζ with high affinity
[2]
  co-immunoprecipitation with 14-3-3I and II: failed to show the interaction of 14-3-3 with PP2c
